Legend:
wheat (winter wheat) = experiment: Test C pre-/postemergence herbicide test; type: in vivo, Triticum aestivum
Method in brief: (§1)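 Visual rating, 0 (no effect) to 100 (complete control), versus untreated controls after 13 to 15 days in the greenhouse. Pre: seeds in loam/sand, sprayed at planting. Post: 1- to 4-leaf plants (2 to 18 cm) in peat-based mix. Compounds in non-phytotoxic solvent plus surfactant.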

foxtail, giant = experiment: Test C pre-/postemergence herbicide test; type: in vivo, Setaria faberii
Method in brief: as §1

rice = experiment: Test B flooded paddy test; type: in vivo, Oryza sativa; settings: Flood, scale of 0 to 100 where 0 is no effect and 100 is complete control
Method in brief: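 Scored visually 0–100 (0 no effect, 100 complete control) versus controls after 13 to 15 greenhouse days. Treatment: compound added to paddy water kept 3 cm above soil, on 2-leaf-stage plants.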

pigweed = experiment: Test C pre-/postemergence herbicide test; type: in vivo, Amaranthus retroflexus
Method in brief: as §1

wheat = experiment: Test A pre-/postemergence herbicide test; type: in vivo, Triticum aestivum
Method in brief: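 Seeds sown in loam soil/sand blend received a preemergence directed soil spray of test chemical in non-phytotoxic solvent with surfactant; postemergence plants (2–10 cm, one- to two-leaf stage) were sprayed with the same formulation. After about 10 days in greenhouse, injury was rated visually versus untreated controls, 0 (no effect) to 100 (complete control).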

galium = experiment: Test C pre-/postemergence herbicide test; type: in vivo, Galium aparine
Method in brief: as §1

[1] = Preemergence, 31 g ai/ha, scale 0 to 100, 0 is no effect and 100 is complete control
[2] = Preemergence, 62 g ai/ha, scale 0 to 100 (0 no effect, 100 complete control)
[3] = Preemergence, 125 g ai/ha, scale 0 to 100 (0 no effect, 100 complete control)
[4] = Postemergence, 125 g ai/ha, visual rating on 0 to 100 scale (0 no effect, 100 complete control), approx. 10 days
[5] = Postemergence, 31 g ai/ha, scale 0 (no effect) to 100 (complete control)
[6] = Postemergence, 62 g ai/ha, scale 0 to 100 (0 no effect, 100 complete control)
[7] = Postemergence, 125 g ai/ha, scale 0 to 100 (0 no effect, 100 complete control)
[8] = Postemergence, 250 g ai/ha, scale 0 to 100 (0 no effect, 100 complete control)
[9] = Preemergence, 62 g ai/ha, scale 0 to 100
[10] = Postemergence, 500 g ai/ha, 0 to 100 scale (0 no effect, 100 complete control)
[11] = Postemergence, 31 g ai/ha, scale 0 to 100 (0 no effect, 100 complete control)
[12] = Postemergence, 62 g ai/ha, scale 0 (no effect) to 100 (complete control)
[13] = Preemergence, 125 g ai/ha, scale 0 to 100

O=C(Nc1ccccc1F)C1C(=S)NCC1c1cccc(C(F)(F)F)c1 (stereo not shown) [Compound 274]
Wheat plant response rating (wheat (winter wheat); [1]): 0
Wheat plant response rating (wheat (winter wheat); [2]): 0
Plant response rating (scale of 0 to 100), Wheat (wheat (winter wheat); Preemergence, 250 g ai/ha): 40
Foxtail, Giant plant response rating (foxtail, giant; [1]): 80
Foxtail, Giant plant response rating (foxtail, giant; [2]): 85
Plant response rating, Foxtail, Giant (foxtail, giant; [3]): 90
Plant response rating (scale of 0 to 100), Foxtail, Giant (foxtail, giant; Preemergence, 250 g ai/ha): 95
Plant response rating, Rice (rice; 500 g ai/ha): 0
Pigweed plant response rating (pigweed; [1]): 0
Pigweed plant response rating (pigweed; [2]): 0
Plant response rating, Pigweed (pigweed; [3]): 0
Plant response rating (scale of 0 to 100), Pigweed (pigweed; Preemergence, 250 g ai/ha): 0
Plant response rating, Wheat (wheat; [4]): 0
Plant response rating, Wheat (wheat; Postemergence, 1000 g ai/ha, 0 to 100 scale (0 no effect, 100 complete control)): 40
Galium plant response rating (galium; [1]): 0
Galium plant response rating (galium; [2]): 0
Plant response rating, Galium (galium; [3]): 80

O=C1NCC(c2ccc(F)c(C(F)(F)F)c2)C1C(=O)Nc1ccccc1F (racemic) [Compound 76]
Plant response rating, Wheat (wheat (winter wheat); [5]): 0
Plant response rating, Wheat (wheat (winter wheat); [6]): 0
Plant response rating, Wheat (wheat (winter wheat); [7]): 0
Plant response rating, Wheat (wheat (winter wheat); [8]): 5
Wheat plant response rating (wheat (winter wheat); [1]): 35
Plant response rating, Wheat (wheat (winter wheat); [9]): 45
Plant response rating, Wheat (wheat (winter wheat); [3]): 70
Plant response rating (scale of 0 to 100), Wheat (wheat (winter wheat); Preemergence, 250 g ai/ha): 80
Plant response rating, Foxtail, Giant (foxtail, giant; [5]): 0
Plant response rating, Foxtail, Giant (foxtail, giant; [6]): 5
Plant response rating, Foxtail, Giant (foxtail, giant; [7]): 20
Plant response rating, Foxtail, Giant (foxtail, giant; [8]): 70
Foxtail, Giant plant response rating (foxtail, giant; [1]): 90
Plant response rating, Foxtail, Giant (foxtail, giant; [9]): 95
Plant response rating, Foxtail, Giant (foxtail, giant; [3]): 95
Plant response rating (scale of 0 to 100), Foxtail, Giant (foxtail, giant; Preemergence, 250 g ai/ha): 98
Plant response rating, Rice (rice; 250 g ai/ha): 0
Plant response rating, Pigweed (pigweed; [5]): 5
Plant response rating, Pigweed (pigweed; [6]): 10
Plant response rating, Pigweed (pigweed; [7]): 10
Plant response rating, Pigweed (pigweed; [8]): 30
Plant response rating, Pigweed (pigweed; [9]): 0
Plant response rating, Pigweed (pigweed; [3]): 0
Plant response rating (scale of 0 to 100), Pigweed (pigweed; Preemergence, 250 g ai/ha): 40
Plant response rating, Wheat (wheat; Postemergence, 125 g ai/ha, 0 to 100 scale, 0 no effect, 100 complete control): 50
Plant response rating, Wheat (wheat; [10]): 60
Wheat plant response rating (wheat; Preemergence, 125 g ai/ha, visual rating on 0 to 100 scale (0 no effect, 100 complete control)): 0
Plant response rating, Wheat (wheat; preemergence, 500 g ai/ha, 0 to 100 scale): 0
Plant response rating, Galium (galium; [5]): 30
Plant response rating, Galium (galium; [6]): 50
Plant response rating, Galium (galium; [7]): 50
Plant response rating, Galium (galium; [8]): 65
Galium plant response rating (galium; [1]): 5
Plant response rating (scale of 0 to 100), Galium (galium; Preemergence, 250 g ai/ha): 85

CN1CC(c2ccc(F)c(F)c2)C(C(=O)Nc2ccccc2F)C1=O (stereo not shown) [Compound 302]
Plant response rating, Wheat (wheat (winter wheat); [11]): 0
Plant response rating, Wheat (wheat (winter wheat); [12]): 0
Plant response rating, Wheat (wheat (winter wheat); [7]): 0
Plant response rating, Wheat (wheat (winter wheat); [8]): 0
Wheat plant response rating (wheat (winter wheat); [1]): 0
Wheat plant response rating (wheat (winter wheat); [2]): 5
Plant response rating (scale of 0 to 100), Wheat (wheat (winter wheat); Preemergence, 250 g ai/ha): 30
Plant response rating, Foxtail, Giant (foxtail, giant; [11]): 0
Plant response rating, Foxtail, Giant (foxtail, giant; [12]): 45
Plant response rating, Foxtail, Giant (foxtail, giant; [7]): 80
Plant response rating, Foxtail, Giant (foxtail, giant; [8]): 80
Foxtail, Giant plant response rating (foxtail, giant; [1]): 90
Foxtail, Giant plant response rating (foxtail, giant; [2]): 95
Plant response rating, Foxtail, Giant (foxtail, giant; [3]): 100
Plant response rating (scale of 0 to 100), Foxtail, Giant (foxtail, giant; Preemergence, 250 g ai/ha): 100
Plant response rating, Rice (rice; 500 g ai/ha): 0
Plant response rating, Pigweed (pigweed; [11]): 15
Plant response rating, Pigweed (pigweed; [12]): 20
Plant response rating, Pigweed (pigweed; [7]): 20
Plant response rating, Pigweed (pigweed; [8]): 30
Pigweed plant response rating (pigweed; [1]): 0
Pigweed plant response rating (pigweed; [2]): 20
Plant response rating, Pigweed (pigweed; [3]): 25
Plant response rating (scale of 0 to 100), Pigweed (pigweed; Preemergence, 250 g ai/ha): 0
Plant response rating, Wheat (wheat; [4]): 0
Plant response rating, Wheat (wheat; [10]): 50
Plant response rating, Galium (galium; [11]): 10
Plant response rating, Galium (galium; [12]): 15
Plant response rating, Galium (galium; [7]): 10
Plant response rating, Galium (galium; [8]): 45
Galium plant response rating (galium; [1]): 0
Galium plant response rating (galium; [2]): 5
Plant response rating, Galium (galium; [3]): 85
Plant response rating (scale of 0 to 100), Galium (galium; Preemergence, 250 g ai/ha): 85

O=C1NCC(c2cccc(C(F)(F)F)c2)C1C(=O)Nc1ccc(F)c(F)c1F (stereo not shown) [Compound 315]
Plant response rating, Wheat (wheat (winter wheat); [11]): 0
Plant response rating, Wheat (wheat (winter wheat); [12]): 0
Plant response rating, Wheat (wheat (winter wheat); [7]): 0
Plant response rating, Wheat (wheat (winter wheat); [8]): 5
Wheat plant response rating (wheat (winter wheat); [2]): 50
Plant response rating, Wheat (wheat (winter wheat); [13]): 90
Plant response rating (scale of 0 to 100), Wheat (wheat (winter wheat); Preemergence, 250 g ai/ha): 90
Plant response rating, Foxtail, Giant (foxtail, giant; [11]): 0
Plant response rating, Foxtail, Giant (foxtail, giant; [12]): 40
Plant response rating, Foxtail, Giant (foxtail, giant; [7]): 85
Plant response rating, Foxtail, Giant (foxtail, giant; [8]): 85
Foxtail, Giant plant response rating (foxtail, giant; [1]): 90
Foxtail, Giant plant response rating (foxtail, giant; [2]): 90
Plant response rating, Foxtail, Giant (foxtail, giant; [13]): 95
Plant response rating (scale of 0 to 100), Foxtail, Giant (foxtail, giant; Preemergence, 250 g ai/ha): 98
Plant response rating, Rice (rice; 500 g ai/ha): 15
Plant response rating, Pigweed (pigweed; [11]): 25
Plant response rating, Pigweed (pigweed; [12]): 65
Plant response rating, Pigweed (pigweed; [7]): 65
Plant response rating, Pigweed (pigweed; [8]): 80
Pigweed plant response rating (pigweed; [1]): 45
Pigweed plant response rating (pigweed; [2]): 60
Plant response rating, Pigweed (pigweed; [13]): 75
Plant response rating (scale of 0 to 100), Pigweed (pigweed; Preemergence, 250 g ai/ha): 85
Plant response rating, Wheat (wheat; [4]): 60
Plant response rating, Wheat (wheat; [10]): 70
Galium plant response rating (galium; [1]): 90
Galium plant response rating (galium; [2]): 80
Plant response rating, Galium (galium; [13]): 80
Plant response rating (scale of 0 to 100), Galium (galium; Preemergence, 250 g ai/ha): 90

O=C1NCC(c2ccc(C(F)(F)F)c(F)c2)C1C(=O)Nc1ccccc1F (racemic) [Compound 246]
Wheat plant response rating (wheat (winter wheat); [1]): 0
Wheat plant response rating (wheat (winter wheat); [2]): 0
Plant response rating, Wheat (wheat (winter wheat); [3]): 10
Plant response rating (scale of 0 to 100), Wheat (wheat (winter wheat); Preemergence, 250 g ai/ha): 30
Foxtail, Giant plant response rating (foxtail, giant; [1]): 85
Foxtail, Giant plant response rating (foxtail, giant; [2]): 90
Plant response rating, Foxtail, Giant (foxtail, giant; [3]): 95
Plant response rating (scale of 0 to 100), Foxtail, Giant (foxtail, giant; Preemergence, 250 g ai/ha): 95
Plant response rating, Rice (rice; 1000 g ai/ha): 20
Pigweed plant response rating (pigweed; [1]): 30
Pigweed plant response rating (pigweed; [2]): 75
Plant response rating, Pigweed (pigweed; [3]): 75
Plant response rating (scale of 0 to 100), Pigweed (pigweed; Preemergence, 250 g ai/ha): 100
Plant response rating, Wheat (wheat; Postemergence, 125 g ai/ha, 0 to 100 scale, 0 is no effect, 100 is complete control): 0
Plant response rating, Wheat (wheat; [10]): 30
Plant response rating, Wheat (wheat; Preemergence, 125 g ai/ha, 0 to 100 scale where 0 is no effect and 100 is complete control): 0
Galium plant response rating (galium; [1]): 10
Galium plant response rating (galium; [2]): 90
Plant response rating, Galium (galium; [3]): 90
Plant response rating (scale of 0 to 100), Galium (galium; Preemergence, 250 g ai/ha): 90

O=C1NCC(c2cccc(Br)c2)C1C(=O)Nc1cccc(F)c1F (stereo not shown) [Compound 309]
Plant response rating, Wheat (wheat (winter wheat); [11]): 0
Plant response rating, Wheat (wheat (winter wheat); [12]): 0
Plant response rating, Wheat (wheat (winter wheat); [7]): 0
Plant response rating, Wheat (wheat (winter wheat); [8]): 0
Wheat plant response rating (wheat (winter wheat); [2]): 0
Plant response rating, Wheat (wheat (winter wheat); [13]): 0
Plant response rating (scale of 0 to 100), Wheat (wheat (winter wheat); Preemergence, 250 g ai/ha): 0
Plant response rating, Foxtail, Giant (foxtail, giant; [11]): 10
Plant response rating, Foxtail, Giant (foxtail, giant; [12]): 0
Plant response rating, Foxtail, Giant (foxtail, giant; [7]): 40
Plant response rating, Foxtail, Giant (foxtail, giant; [8]): 80
Foxtail, Giant plant response rating (foxtail, giant; [1]): 90
Foxtail, Giant plant response rating (foxtail, giant; [2]): 90
Plant response rating, Foxtail, Giant (foxtail, giant; [13]): 90
Plant response rating (scale of 0 to 100), Foxtail, Giant (foxtail, giant; Preemergence, 250 g ai/ha): 95
Plant response rating, Rice (rice; 500 g ai/ha): 0
Plant response rating, Pigweed (pigweed; [11]): 30
Plant response rating, Pigweed (pigweed; [12]): 50
Plant response rating, Pigweed (pigweed; [7]): 50
Plant response rating, Pigweed (pigweed; [8]): 60
Pigweed plant response rating (pigweed; [1]): 0
Pigweed plant response rating (pigweed; [2]): 0
Plant response rating, Pigweed (pigweed; [13]): 0
Plant response rating (scale of 0 to 100), Pigweed (pigweed; Preemergence, 250 g ai/ha): 40
Plant response rating, Wheat (wheat; [4]): 40
Plant response rating, Wheat (wheat; [10]): 60
Plant response rating, Galium (galium; [11]): 30
Plant response rating, Galium (galium; [12]): 40
Plant response rating, Galium (galium; [7]): 55
Plant response rating, Galium (galium; [8]): 60
Galium plant response rating (galium; [1]): 0
Galium plant response rating (galium; [2]): 0
Plant response rating, Galium (galium; [13]): 75
Plant response rating (scale of 0 to 100), Galium (galium; Preemergence, 250 g ai/ha): 85

Source: patent publication US10294202B2, “Pyrrolidinones as herbicides” (FMC Corporation, priority 2013, dated 2019)
